Data published in BindingDB's records for doi:10.1021/jm00053a022 (University of Paris, 1993).
pKi: −log10 of the molar value. Non-standard residues stand in square brackets, D forms with d. Residues, ends and D or L forms follow the SMILES beside them. *: point of attachment. NMeW = CN[C@@H](Cc1c[nH]c2ccccc12)C(=O)O; 1Nal = N[C@@H](Cc1cccc2ccccc12)C(=O)O; Chg = N[C@H](C(=O)O)C1CCCCC1; Phg = N[C@H](C(=O)O)c1ccccc1; OtBu = CC(C)(C)O*

Columns and labels:
[1] = biological target: Gastrin/cholecystokinin type B receptor (Cavia porcellus); assay: Displacement of [3H]pCCK-8 from cholecystokinin type B receptor in guinea pig brain membrane
[2] = biological target: Gastrin/cholecystokinin type B receptor (Cavia porcellus); assay: as above; remark: listed apart in the source

## CCCC[C@H](NC(=O)[C@H](CC(=O)O)NC(=O)[C@@H](N)Cc1ccccc1)C(=O)N[C@H](Cc1c[nH]c2ccccc12)C(=O)OC(C)(C)C [3-(2-Amino-3-phenyl-propionylamino)-N-{1-[1-tert-butoxycarbonyl-2-(1H-indol-3-yl)-ethylcarbamoyl]-pentyl}-succinamic acid]
[1]
  pKi: 6.80
[2]
  pKi: 6.80

## CC(C)(C)OC(=O)[C@H](Cc1c[nH]c2ccccc12)NC(=O)[C@H](Cc1ccccc1)NC(=O)[C@H](CC(=O)O)NC(=O)[C@@H](N)Cc1cccc2ccccc12 [3-(2-Amino-3-naphthalen-1-yl-propionylamino)-N-{1-[1-tert-butoxycarbonyl-2-(1H-indol-3-yl)-ethylcarbamoyl]-2-phenyl-ethyl}-succinamic acid] (H-[1Nal]DFW-OtBu)
[2]
  pKi: 7.15

## CN(C(=O)[C@@H](NC(=O)[C@H](CC(=O)O)NC(=O)[C@@H](N)Cc1cccc2ccccc12)c1ccccc1)[C@@H](Cc1c[nH]c2ccccc12)C(=O)OC(C)(C)C [3-(2-Amino-3-naphthalen-1-yl-propionylamino)-N-({[1-tert-butoxycarbonyl-2-(1H-indol-3-yl)-ethyl]-methyl-carbamoyl}-phenyl-methyl)-succinamic acid] (H-[1Nal]D[Phg][NMeW]-OtBu)
[2]
  pKi: 6.77

## CN(C)[C@@H](Cc1cccc2ccccc12)C(=O)N[C@@H](CC(=O)O)C(=O)N[C@H](C(=O)N[C@@H](Cc1c[nH]c2ccccc12)C(=O)OC(C)(C)C)C1CCCCC1 [N-{[1-tert-Butoxycarbonyl-2-(1H-indol-3-yl)-ethylcarbamoyl]-cyclohexyl-methyl}-3-(2-dimethylamino-3-naphthalen-1-yl-propionylamino)-succinamic acid]
[2]
  pKi: 7.13

## CCCC[C@H](NC(=O)[C@H](CC(=O)O)NC(=O)[C@H](Cc1cccc2ccccc12)N(C)C)C(=O)N(C)[C@@H](Cc1c[nH]c2ccccc12)C(=O)OC(C)(C)C [N-(1-{[1-tert-Butoxycarbonyl-2-(1H-indol-3-yl)-ethyl]-methyl-carbamoyl}-pentyl)-3-(2-dimethylamino-3-naphthalen-1-yl-propionylamino)-succinamic acid]
[2]
  pKi: 7.09

## CN(C)[C@@H](Cc1cccc2ccccc12)C(=O)N[C@@H](CC(=O)O)C(=O)N[C@H](C(=O)N[C@@H](Cc1c[nH]c2ccccc12)C(=O)OC(C)(C)C)c1ccccc1 [N-{[1-tert-Butoxycarbonyl-2-(1H-indol-3-yl)-ethylcarbamoyl]-phenyl-methyl}-3-(2-dimethylamino-3-naphthalen-1-yl-propionylamino)-succinamic acid]
[2]
  pKi: 7.41

## CN(C(=O)[C@@H](NC(=O)[C@H](CC(=O)O)NC(=O)[C@@H](N)Cc1cccc2ccccc12)C1CCCCC1)[C@@H](Cc1c[nH]c2ccccc12)C(=O)OC(C)(C)C [3-(2-Amino-3-naphthalen-1-yl-propionylamino)-N-({[1-tert-butoxycarbonyl-2-(1H-indol-3-yl)-ethyl]-methyl-carbamoyl}-cyclohexyl-methyl)-succinamic acid] (H-[1Nal]D[Chg][NMeW]-OtBu)
[2]
  pKi: 6.85
